Data published in BindingDB's records for patent WO2025049746 (Eikon Therapeutics, 2025).

Columns and labels:
[1] = target: T1, Bifunctional 3'-5' exonuclease/ATP-dependent helicase WRN [480-1251] (UniProt Q14191); assay: Biochemical Activity Assays
T1 construct: 480-1251

[2] = target: Bifunctional 3'-5' exonuclease/ATP-dependent helicase WRN (Homo sapiens, UniProt Q14191); assay: ADP-Glo Kinase Assay
Protocol: ATPase activity was measured using the ADP-Glo Kinase Assay following the manufacturers recommended protocol.

Sequence of Bifunctional 3'-5' exonuclease/ATP-dependent helicase WRN (Q14191 whole entry): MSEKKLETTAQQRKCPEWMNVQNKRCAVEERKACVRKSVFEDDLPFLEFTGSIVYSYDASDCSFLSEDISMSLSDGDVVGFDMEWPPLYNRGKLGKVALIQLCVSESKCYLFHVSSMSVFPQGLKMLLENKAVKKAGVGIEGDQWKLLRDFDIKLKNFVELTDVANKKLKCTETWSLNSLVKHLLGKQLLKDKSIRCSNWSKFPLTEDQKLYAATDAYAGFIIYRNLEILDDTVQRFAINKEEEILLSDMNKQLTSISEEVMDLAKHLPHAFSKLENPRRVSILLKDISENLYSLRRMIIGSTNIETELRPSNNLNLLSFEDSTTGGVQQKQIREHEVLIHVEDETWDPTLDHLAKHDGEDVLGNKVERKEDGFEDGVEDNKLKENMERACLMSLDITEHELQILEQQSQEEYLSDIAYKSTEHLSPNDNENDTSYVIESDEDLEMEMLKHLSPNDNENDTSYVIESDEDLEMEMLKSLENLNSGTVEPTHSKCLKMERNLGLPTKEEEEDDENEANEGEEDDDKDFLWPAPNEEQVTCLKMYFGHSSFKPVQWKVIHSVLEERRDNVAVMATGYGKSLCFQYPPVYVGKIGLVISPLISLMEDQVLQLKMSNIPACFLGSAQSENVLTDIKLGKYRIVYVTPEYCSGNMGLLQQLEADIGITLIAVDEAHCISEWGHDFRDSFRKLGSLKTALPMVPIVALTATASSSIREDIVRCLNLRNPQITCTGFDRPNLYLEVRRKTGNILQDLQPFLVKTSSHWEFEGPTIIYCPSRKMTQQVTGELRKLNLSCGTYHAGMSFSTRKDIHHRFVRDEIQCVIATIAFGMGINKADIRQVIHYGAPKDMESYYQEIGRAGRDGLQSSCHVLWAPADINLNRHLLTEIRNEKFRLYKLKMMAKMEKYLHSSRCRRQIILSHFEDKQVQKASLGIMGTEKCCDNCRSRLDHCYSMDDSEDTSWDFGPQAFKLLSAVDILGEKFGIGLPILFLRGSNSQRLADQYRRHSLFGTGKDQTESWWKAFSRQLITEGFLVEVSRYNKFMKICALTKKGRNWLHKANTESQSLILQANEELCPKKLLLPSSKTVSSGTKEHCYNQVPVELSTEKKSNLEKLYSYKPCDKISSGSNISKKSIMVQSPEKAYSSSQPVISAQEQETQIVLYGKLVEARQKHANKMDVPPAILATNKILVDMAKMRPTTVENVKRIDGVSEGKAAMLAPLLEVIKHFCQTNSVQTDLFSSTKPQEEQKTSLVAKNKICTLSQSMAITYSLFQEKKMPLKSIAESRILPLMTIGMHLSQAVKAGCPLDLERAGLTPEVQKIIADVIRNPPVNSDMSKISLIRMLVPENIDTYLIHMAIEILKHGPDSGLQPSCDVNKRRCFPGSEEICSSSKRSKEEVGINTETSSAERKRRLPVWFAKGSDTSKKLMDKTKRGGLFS
T1 sequence (Q14191 480-1251): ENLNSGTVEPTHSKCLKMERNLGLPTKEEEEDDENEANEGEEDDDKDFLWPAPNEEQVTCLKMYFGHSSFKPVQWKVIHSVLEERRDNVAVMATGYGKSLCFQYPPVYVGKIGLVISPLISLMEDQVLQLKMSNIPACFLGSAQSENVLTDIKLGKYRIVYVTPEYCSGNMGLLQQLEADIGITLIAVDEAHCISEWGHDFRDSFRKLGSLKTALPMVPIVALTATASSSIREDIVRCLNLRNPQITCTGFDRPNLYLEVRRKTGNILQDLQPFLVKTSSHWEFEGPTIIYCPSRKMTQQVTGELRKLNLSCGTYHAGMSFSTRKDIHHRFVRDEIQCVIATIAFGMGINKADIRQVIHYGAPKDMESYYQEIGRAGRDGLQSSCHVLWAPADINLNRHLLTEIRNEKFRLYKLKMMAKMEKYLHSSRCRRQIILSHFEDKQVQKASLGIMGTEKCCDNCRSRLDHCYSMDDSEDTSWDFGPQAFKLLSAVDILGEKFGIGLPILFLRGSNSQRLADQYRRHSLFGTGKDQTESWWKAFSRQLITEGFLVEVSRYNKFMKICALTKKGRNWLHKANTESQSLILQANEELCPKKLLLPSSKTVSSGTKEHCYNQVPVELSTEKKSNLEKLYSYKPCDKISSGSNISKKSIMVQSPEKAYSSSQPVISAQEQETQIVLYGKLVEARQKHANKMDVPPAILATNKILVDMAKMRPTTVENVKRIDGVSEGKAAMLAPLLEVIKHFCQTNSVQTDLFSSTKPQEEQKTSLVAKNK

SMILES	IC50 [1] [nM]	IC50 [2] [nM]
CCc1c(N2CCN(C(=O)c3ncnc(C)c3O)CC2)c(=O)n2nc(-c3ccc(C(=O)N4CCCC4)cc3)nc2n1CC(=O)Nc1ccc(C(F)(F)F)cc1Cl [WO2025049746, Example 267]	23	26
CCc1c(N2CCC3C2CCCN3C(=O)c2ncnc(C)c2O)c(=O)n2nc(C3=CCOCC3)nc2n1CC(=O)Nc1ccc(C(F)(F)F)cc1Cl (stereo unspecified) [WO2025049746, Example 347]	84	132
CCc1c(N2CCN(C(=O)c3ncnc(C)c3O)CC2)c(=O)n2nc(-c3cnc4nccn4c3)nc2n1CC(=O)Nc1ccc(C(F)(F)F)cc1Cl [WO2025049746, Example 305]	48	48
CCc1c(N2CCN(C(=O)c3ccccc3NS(=O)(=O)C3CC3)CC2)c(=O)n2nc(C3=CCOCC3)nc2n1CC(=O)Nc1ccc(C(F)(F)F)cc1Cl [WO2025049746, Example 39]	33	45.7
CCCn1cc2cc(-c3nc4n(CC(=O)Nc5ccc(C(F)(F)F)cc5Cl)c(CC)c(N5CCN(C(=O)c6ncnc(C)c6O)CC5)c(=O)n4n3)ccc2n1 [WO2025049746, Example 302]	35	29
CCc1c(N2CCN(C(=O)c3ncnc(C)c3O)CC2)c(=O)n2nc(-c3ccc4c(c3)C(C)(C)OC4)nc2n1CC(=O)Nc1ccc(C(F)(F)F)cc1Cl [WO2025049746, Example 165]	42	53
CCc1c(N2CCN(C(=O)c3cccc[n+]3[O-])CC2)c(=O)n2nc(C3=CCOCC3)nc2n1CC(=O)Nc1ccc(C(F)(F)F)cc1Cl [WO2025049746, Example 35]	68.4	130
CCc1c(N2CCN(C(=O)c3ncnc(C)c3O)CC2)c(=O)n2nc(-c3cc4c(cc3F)C3(CN(C)C3)OC4)nc2n1CC(=O)Nc1ccc(C(F)(F)F)cc1Cl [WO2025049746, Example 273]	48	43
CCc1c(N2CCN(C(=O)c3ncnc(C)c3O)CC2)c(=O)n2nc(-c3cncc4c3cnn4C)nc2n1CC(=O)Nc1ccc(C(F)(F)F)cc1Cl [WO2025049746, Example 24]	32.9	42.9
CCc1c(N2CCN(C(=O)C3CCCC3O)CC2)c(=O)n2nc(C3=CCOCC3)nc2n1CC(=O)Nc1ccc(C(F)(F)F)cc1Cl (stereo unspecified) [WO2025049746, Example 58]	187	1260
CCc1c(N2CCN(C(=O)c3ncnc(C)c3O)CC2)c(=O)n2nc(-c3cnn4c3COCC4)nc2n1CC(=O)Nc1ccc(C(F)(F)F)cc1Cl [WO2025049746, Example 20]	53.6	88.6
CCc1c(N2CCN(C(=O)c3ncnc(C)c3O)CC2)c(=O)n2nc(-c3ccc4c(c3)CC[C@H]4OC(F)F)nc2n1CC(=O)Nc1ccc(C(F)(F)F)cc1Cl [WO2025049746, Example 226]	98	74
CCc1c(N2CCN(C(=O)c3ncnc(C)c3O)CC2)c(=O)n2nc(-c3ccc4c(c3)COC4)nc2n1CC(=O)Nc1ccc(C=C(F)F)cc1Cl [WO2025049746, Example 421]	25	30
CCc1c(N2CCN(C(=O)c3ncnc(C)c3O)CC2)c(=O)n2nc(-c3ccc4c(c3)CN(C)C4)nc2n1CC(=O)Nc1ccc(C(F)(F)F)cc1Cl [WO2025049746, Example 197]	52	50
CCc1c(N2CCN(C(=O)c3cccc4c3ncn4C)CC2)c(=O)n2nc(C3=CCOCC3)nc2n1CC(=O)Nc1ccc(C(F)(F)F)cc1Cl [WO2025049746, Example 44]	51.7	83.9
CCc1c(N2CCCN(C(=O)c3ncnc(C)c3O)CC2)c(=O)n2nc(C3=CCOCC3)nc2n1CC(=O)Nc1ccc(C(F)(F)F)cc1Cl [WO2025049746, Example 340]	93	166
CCc1c(N2CCN(C(=O)c3ncnc(C)c3O)CC2)c(=O)n2nc(-c3ccc4c(c3)C(=O)NC4)nc2n1CC(=O)Nc1ccc(C(F)(F)F)cc1Cl [WO2025049746, Example 188]	30	52
CCc1c(N2CCN(C(=O)c3ncnc(C)c3O)CC2)c(=O)n2nc(-c3cc4n(n3)CCC4)nc2n1CC(=O)Nc1ccc(C(F)(F)F)cc1Cl [WO2025049746, Example 183]	46	52
CCc1c(N2CCN(C(=O)c3ncnc(C)c3O)CC2)c(=O)n2nc(C3=CCOCC3)nc2n1CC(=O)NC12CC(C(F)(F)C(F)(F)F)(C1)C2 [WO2025049746, Example 69]	141	235
CCc1c(N2CCN(C(=O)c3ncnc(C)c3O)CC2)c(=O)n2nc(-c3ccc4c(c3)COC4)nc2n1CC(=O)Nc1ccc(SC(F)(F)F)cc1Cl [WO2025049746, Example 409]	25	31
CCc1c(N2CCN(C(=O)c3ncnc(C)c3O)CC2)c(=O)n2nc(C3CC3)nc2n1CC(=O)Nc1ccc(C(F)(F)F)cc1C [WO2025049746, Example 78]	70.1	194
CCc1c(N2CCN(C(=O)c3csc4cncnc34)CC2)c(=O)n2nc(C3=CCOCC3)nc2n1CC(=O)Nc1ccc(C(F)(F)F)cc1Cl [WO2025049746, Example 43]	41.9	63.9

SMILES	IC50 [1] [nM]	IC50 [2] [nM]
Cc1ncnc(C(=O)N2CCN(c3c4n(c5nc(-c6ccc7c(c6)COC7(C)C)nn5c3=O)[C@@H](C(=O)Nc3ccc(C(F)(F)F)cc3Cl)C[C@H]4C)[C@H]3CC[C@@H]32)c1O [WO2025049746, Example 465]	31.9	29.1
CCc1c(N2CCN(C(=O)c3ncnc(C)c3O)CC2)c(=O)n2nc(-c3ccc4c(c3)CCO[C@H]4C)nc2n1CC(=O)Nc1ccc(C(F)(F)F)cc1Cl [WO2025049746, Example 229]	30	27
CCc1c(N2CCN(C(=O)c3ncnc(C)c3O)CC2)c(=O)n2nc(-c3cccc4c3OC(F)(F)O4)nc2n1CC(=O)Nc1ccc(C(F)(F)F)cc1Cl [WO2025049746, Example 232]	67	77
CCc1c(N2CCN(C(=O)c3nccc4nn[nH]c34)CC2)c(=O)n2nc(C3=CCOCC3)nc2n1CC(=O)Nc1ccc(C(F)(F)F)cc1Cl [WO2025049746, Example 48]	19.8	27
CCc1c(N2CCN(C(=O)c3ccccc3NS(=O)(=O)C3CC3)CC2)c(=O)n2nc(N(C)C)nc2n1CC(=O)Nc1ccc(C(F)(F)F)c2c1CC2 [WO2025049746, Example 105]	264	281
CCc1c(N2CCN(C(=O)c3nc4c(cc3O)OCC4)CC2)c(=O)n2nc(-c3ccc4c(c3)COC4)nc2n1CC(=O)Nc1ccc(C(F)(F)F)cc1Cl [WO2025049746, Example 435]	50	61
CCc1c(N2CCN(C(=O)c3ncnc(C)c3O)CC2)c(=O)n2nc(N(C)C)nc2n1CC(=O)Nc1ccc(SC(F)(F)F)cc1 [WO2025049746, Example 392]	396	468
CCc1c(N2CCN(C(=O)c3ncnc(C)c3O)CC2)c(=O)n2nc(C3=CCOCC3)nc2n1CC(=O)Nc1ccc(C(F)(F)F)cn1 [WO2025049746, Example 363]	81	155
CCc1c(N2CCN(C(=O)c3nc4n(c(=O)c3O)CCOC4)CC2)c(=O)n2nc(N(C)C)nc2n1CC(=O)Nc1ccc(C(F)(F)F)c2c1CC2 [WO2025049746, Example 109]	14.7	13.4
CCc1c(N2CCN(C(=O)c3ncnc(C)c3O)CC2)c(=O)n2nc(-c3ccc4c(c3C)CCO4)nc2n1CC(=O)Nc1ccc(C(F)(F)F)cc1Cl [WO2025049746, Example 238]	33	30
CCc1c(N2CCN(C(=O)c3ncnc(C)c3O)CC2)c(=O)n2nc(N(C)C)nc2n1CC(=O)Nc1ccc(SC(F)(F)F)cc1Cl [WO2025049746, Example 396]	36	42
CCc1c(N2CCN(C(=O)c3nccc4nc[nH]c34)CC2)c(=O)n2nc(N(C)C)nc2n1CC(=O)Nc1ccc(C(F)(F)F)cc1Cl [WO2025049746, Example 80]	26.9	43.3
CCc1c(N2CCN(C(=O)c3ncnc(C)c3O)CC2)c(=O)n2nc(-c3cnc4c(c3)COC4)nc2n1CC(=O)Nc1ccc(C(F)(F)F)cc1Cl [WO2025049746, Example 14]	33.1	39.3
CCc1c(N2CCN(C(=O)c3ncnc(C)c3O)CC2)c(=O)n2nc(-c3ccc4c(c3)CCN(C)C4)nc2n1CC(=O)Nc1ccc(C(F)(F)F)cc1Cl [WO2025049746, Example 294]	48	44
CCc1c(N2CCC(N(C)C(=O)c3ncnc(C)c3O)C2)c(=O)n2nc(C3=CCOCC3)nc2n1CC(=O)Nc1ccc(C(F)(F)F)cc1Cl (stereo unspecified) [WO2025049746, Example 339]	2340	29700
CCc1c(N2CCN(C(=O)c3ncnc(C)c3O)CC2)c(=O)n2nc(-c3ccc4c(c3)CC(F)(F)C4)nc2n1CC(=O)Nc1ccc(C(F)(F)F)cc1Cl [WO2025049746, Example 224]	47	47
CCc1c(N2CCN(C(=O)c3ncnc(C)c3O)CC2)c(=O)n2nc(-c3ccc4nonc4c3)nc2n1CC(=O)Nc1ccc(C(F)(F)F)cc1Cl [WO2025049746, Example 234]	75	67
CCc1c(N2CCN(C(=O)c3ncnc(C)c3O)CC2)c(=O)n2nc(-c3ccc4c(c3)CCOC4)nc2n1CC(=O)Nc1ccc(SC(F)(F)F)cc1 [WO2025049746, Example 393]	419	506
CCc1c(N2CCN(C(=O)c3ncnc(C)c3O)CC2)c(=O)n2nc(-c3ccc4c(c3)N(C)C(=O)CO4)nc2n1CC(=O)Nc1ccc(C(F)(F)F)cc1Cl [WO2025049746, Example 198]	33	48
CCc1c(N2CCN(C(=O)c3ncnc(C)c3O)CC2)c(=O)n2nc(-c3ccc(S(=O)(=O)N4CCC4)cc3)nc2n1CC(=O)Nc1ccc(C(F)(F)F)cc1Cl [WO2025049746, Example 270]	18	19
CCc1c(N2CCN(C(=O)c3nc4c(cc3O)CCOC4)CC2)c(=O)n2nc(-c3ccc4c(c3)COC4(C)C)nc2n1CC(=O)Nc1ccc(C(F)(F)F)cc1Cl [WO2025049746, Example 463]	84.8	70.5
